Earlier results in patent US20140227371A1, “EDIBLE COMPOSITION” (priority 2011, published 2014).

Experiments:
[1] = tested on: rat liver; conditions: through activation of the β-oxidation system, Tsuduki et al. 2009
[2] = alcohol-induced steatosis and steatohepatitis models; Kang et al. 2005

Compound | Lipid accumulation [1] | Hepatoprotective effects [2]
OC[C@H]1NC[C@H](O)[C@@H](O)[C@@H]1O [1-Deoxynojirimycin] | suppress lipid accumulation | 
[Zn] [Zinc] |  | hepatoprotective effects
